Source: ChEMBL document CHEMBL1201862, “PubChem BioAssay data set” (2004)
Activity calls are given as the source filed them.

What was measured:
Large T antigen = Large T antigen (Simian virus 40, UniProt P03070); assay type: functional, Betapolyomavirus macacae;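 note: Confirmatory-stage PubChem screen for compounds that inhibit SV40 T antigen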
[1] = biological target: T1, DNA dC->dU-editing enzyme APOBEC-3A (Homo sapiens, UniProt P31941); assay: APOBEC3A DNA deaminase inhibitors, dose response, biochemical (AID 504722); assay type: functional
T1 sequence (P31941 whole entry): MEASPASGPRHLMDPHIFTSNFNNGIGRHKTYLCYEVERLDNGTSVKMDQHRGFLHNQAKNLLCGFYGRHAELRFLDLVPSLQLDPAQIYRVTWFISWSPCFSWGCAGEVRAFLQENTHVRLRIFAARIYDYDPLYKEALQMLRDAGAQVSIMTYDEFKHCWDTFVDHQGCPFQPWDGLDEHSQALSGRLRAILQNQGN

[2] = biological target: T2, DNA dC->dU-editing enzyme APOBEC-3G (Homo sapiens, UniProt Q9HC16); assay: Dose Response confirmation of small molecule APOBEC3G DNA Deaminase Inhibitors via a fluorescence-based single-stranded DNA deaminase assay. [Related pubchem assays (depositor defined):AID493012, AID493028]; assay type: functional
T2 sequence (Q9HC16 whole entry): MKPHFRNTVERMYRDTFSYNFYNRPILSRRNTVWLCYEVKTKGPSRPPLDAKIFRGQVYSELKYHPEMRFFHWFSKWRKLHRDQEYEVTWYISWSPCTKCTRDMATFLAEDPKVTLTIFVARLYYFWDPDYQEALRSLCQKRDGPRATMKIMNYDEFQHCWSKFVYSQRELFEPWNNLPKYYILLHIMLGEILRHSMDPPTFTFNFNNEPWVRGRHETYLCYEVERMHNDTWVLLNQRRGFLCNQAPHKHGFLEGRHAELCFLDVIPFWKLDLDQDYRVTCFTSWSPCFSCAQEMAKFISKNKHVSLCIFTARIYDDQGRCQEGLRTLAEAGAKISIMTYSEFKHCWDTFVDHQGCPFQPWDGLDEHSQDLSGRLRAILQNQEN

[3] = biological target: T1, DNA dC->dU-editing enzyme APOBEC-3A; assay: SAR analysis of small molecule inhibitors of APOBEC3A DNA Deaminase via a fluorescence-based single-stranded DNA deaminase assay - Set 2.; assay type: functional; conditions: read-out: IC50_Mean
[4] = biological target: T2, DNA dC->dU-editing enzyme APOBEC-3G; assay: SAR analysis of small molecule inhibitors of APOBEC3G DNA Deaminase via a fluorescence-based single-stranded DNA deaminase assay - Set 2.; assay type: functional; conditions: read-out: IC50_Mean
[5] = biological target: T2, DNA dC->dU-editing enzyme APOBEC-3G; assay: APOBEC3G deaminase inhibitors, SAR follow-up, biochemical, fluorescence, single-stranded DNA substrate (AID 602136); assay type: functional; conditions: read-out: IC50_Mean
[6] = biological target: T1, DNA dC->dU-editing enzyme APOBEC-3A; assay: SAR analysis of small molecule inhibitors of APOBEC3A DNA Deaminase via a fluorescence-based single-stranded DNA deaminase assay.; assay type: functional; conditions: read-out: IC50_Mean
[7] = inhibitors of firefly luciferase expression or activity, dose response, H4 neuroglioma cells, luminescence (AID 1990); assay type: functional, cell-based
BJ [8] = assay: cytotoxicity toward BJ-TERT fibroblasts, dose response, cell-based, RAS-independent, luminescence (AID 1933); assay type: functional; conditions: Homo sapiens
[9] = Luminescence Cell-Based Dose Response HTS to Identify Inhibitors of 5'UTR Stem-Loop Driven Prion Protein mRNA Translation in H4 Neuroglioblastoma Cells. [Related pubchem assays: 1827 (Project Summary), 1813 (Primary HTS)]; assay type: functional
[10] = inhibitors of SNCA 5'UTR-driven reporter translation, confirmation, H4 neuroglioma cells, luminescence (AID 1988); assay type: functional, cell-based
BJ [11] = assay: cells; assay type: functional, cell-based; conditions: Homo sapiens
J774.A1 = assay: Confirmation of image-based Screening Assay for Inhibitors of Phagocytosis. [Related pubchem assays (depositor defined):AID1029, AID1643]; assay type: functional, cell-based; conditions: Mus musculus
BJ [12] = assay: cytotoxicity toward BJ-TERT-LT-ST fibroblasts, dose response, cell-based, RAS-independent, luminescence (AID 1935); assay type: functional; conditions: Homo sapiens;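 note: BJ fibroblasts immortalized with TERT plus LT and ST oncogenes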
[13] = cytotoxicity toward DRD oncogenic fibroblasts, dose response, cell-based, non-viral oncogenic, luminescence (AID 1934); assay type: functional; conditions: Homo sapiens
[14] = biological target: E3 ubiquitin-protein ligase Mdm2/Protein Mdm4 (Homo sapiens, UniProt O15151+Q00987); assay: Mdm2-MdmX interaction inhibitors, dose response, luminescence detection (AID 504593); assay type: functional
[15] = cytotoxicity in HEK-293T cells, dose response, cytotoxicity control for TCR NF-kB inhibitor project, luminescence, T-cell screen hits (AID 489026); assay type: functional, cell-based;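 note: cells exposed to compound about 14 hours before the viability readout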
[16] = biological target: T3, Replicative DNA helicase DnaB (Mycobacterium tuberculosis, UniProt P9WMR3); assay: DnaB intein splicing inhibitors, dose response, biochemical, cell-free fluorescence (AID 449749); assay type: functional
T3 sequence (P9WMR3 whole entry): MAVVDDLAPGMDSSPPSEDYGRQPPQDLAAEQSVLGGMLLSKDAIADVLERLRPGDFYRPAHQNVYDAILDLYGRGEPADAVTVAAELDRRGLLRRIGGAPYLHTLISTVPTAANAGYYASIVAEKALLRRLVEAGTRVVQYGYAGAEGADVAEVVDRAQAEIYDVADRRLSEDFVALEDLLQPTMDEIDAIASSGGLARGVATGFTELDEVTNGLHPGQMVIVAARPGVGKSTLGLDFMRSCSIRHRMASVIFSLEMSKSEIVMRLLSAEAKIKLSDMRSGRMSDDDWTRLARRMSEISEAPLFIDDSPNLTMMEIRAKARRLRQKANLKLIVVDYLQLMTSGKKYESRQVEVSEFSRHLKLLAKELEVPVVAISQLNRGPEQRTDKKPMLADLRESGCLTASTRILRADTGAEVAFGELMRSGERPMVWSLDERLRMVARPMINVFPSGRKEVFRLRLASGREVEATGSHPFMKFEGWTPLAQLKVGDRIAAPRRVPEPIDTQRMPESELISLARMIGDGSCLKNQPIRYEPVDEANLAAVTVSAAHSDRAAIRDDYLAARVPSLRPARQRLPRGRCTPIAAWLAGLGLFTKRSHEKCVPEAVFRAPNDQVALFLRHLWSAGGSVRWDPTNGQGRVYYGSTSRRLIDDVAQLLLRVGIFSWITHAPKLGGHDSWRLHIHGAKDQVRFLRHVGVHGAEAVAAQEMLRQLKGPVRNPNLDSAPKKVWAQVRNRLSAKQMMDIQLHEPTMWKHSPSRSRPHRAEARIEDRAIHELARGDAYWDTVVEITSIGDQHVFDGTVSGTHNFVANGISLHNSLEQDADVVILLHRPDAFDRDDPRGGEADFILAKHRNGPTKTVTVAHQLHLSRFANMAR

BJ [17] = assay: cytotoxicity toward Ras-transformed BJeLR fibroblasts, dose response, cell-based, alamar blue fluorescence, cherrypicked samples (AID 2631); assay type: functional; conditions: Homo sapiens;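 note: confirmatory dose-response assay in RAS-dependent BJ fibroblasts engineered with TERT, LT and ST, with cytotoxicity read by fluorescence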
Protein RecA = biological target: T4, Protein RecA (Mycobacterium tuberculosis, UniProt P9WHJ3); assay: Fluorescence Cell-Free Homogeneous Dose Retest to Identify Inhibitors of RecA-Intein Splicing Activity. [Related pubchem assays (depositor defined):AID2097, AID2223, AID489010, AID492950]; assay type: functional
T4 sequence (P9WHJ3 whole entry): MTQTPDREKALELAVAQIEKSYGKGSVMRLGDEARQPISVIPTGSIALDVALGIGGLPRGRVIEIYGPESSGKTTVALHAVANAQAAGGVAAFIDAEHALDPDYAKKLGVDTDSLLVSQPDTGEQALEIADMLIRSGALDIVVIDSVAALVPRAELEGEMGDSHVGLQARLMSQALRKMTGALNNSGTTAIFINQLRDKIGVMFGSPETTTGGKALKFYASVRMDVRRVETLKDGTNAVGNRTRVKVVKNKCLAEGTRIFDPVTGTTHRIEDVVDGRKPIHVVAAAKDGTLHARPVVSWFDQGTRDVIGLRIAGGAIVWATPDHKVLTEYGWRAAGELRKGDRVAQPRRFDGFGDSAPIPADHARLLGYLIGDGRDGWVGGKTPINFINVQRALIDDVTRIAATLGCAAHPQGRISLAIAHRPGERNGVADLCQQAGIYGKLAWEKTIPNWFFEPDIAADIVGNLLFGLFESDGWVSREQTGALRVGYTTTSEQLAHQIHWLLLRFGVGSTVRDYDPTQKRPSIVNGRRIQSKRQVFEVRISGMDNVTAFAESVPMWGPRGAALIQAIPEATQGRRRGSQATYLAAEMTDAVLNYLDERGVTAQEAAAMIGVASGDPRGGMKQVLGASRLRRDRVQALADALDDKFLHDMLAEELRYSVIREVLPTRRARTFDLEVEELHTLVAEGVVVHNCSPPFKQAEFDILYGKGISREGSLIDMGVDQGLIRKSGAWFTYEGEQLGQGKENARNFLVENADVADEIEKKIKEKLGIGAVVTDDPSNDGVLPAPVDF

[18] = Luminescence Cell-Based Dose Retest to Confirm Inhibitors of Cancer Stem Cells. [Related pubchem assays (depositor defined):AID2717, AID2721]; assay type: functional; conditions: Homo sapiens
[19] = biological target: 1-acylglycerol-3-phosphate O-acyltransferase ABHD5/Perilipin-5 (Homo sapiens, UniProt Q00G26+Q8WTS1); assay: Luminescence-based biochemical high throughput dose response assay for inhibitors of the interaction of the lipase co-activator protein, abhydrolase domain containing 5 (ABHD5) with perilipin-5 (MLDP; PLIN5) (2K validation set). [Related pubchem assays (depositor defined):AID493035, AID493241]
1-acylglycerol-3-phosphate O-acyltransferase ABHD5/Perilipin-5, sequence (Q00G26 whole entry, the tested form may be a part): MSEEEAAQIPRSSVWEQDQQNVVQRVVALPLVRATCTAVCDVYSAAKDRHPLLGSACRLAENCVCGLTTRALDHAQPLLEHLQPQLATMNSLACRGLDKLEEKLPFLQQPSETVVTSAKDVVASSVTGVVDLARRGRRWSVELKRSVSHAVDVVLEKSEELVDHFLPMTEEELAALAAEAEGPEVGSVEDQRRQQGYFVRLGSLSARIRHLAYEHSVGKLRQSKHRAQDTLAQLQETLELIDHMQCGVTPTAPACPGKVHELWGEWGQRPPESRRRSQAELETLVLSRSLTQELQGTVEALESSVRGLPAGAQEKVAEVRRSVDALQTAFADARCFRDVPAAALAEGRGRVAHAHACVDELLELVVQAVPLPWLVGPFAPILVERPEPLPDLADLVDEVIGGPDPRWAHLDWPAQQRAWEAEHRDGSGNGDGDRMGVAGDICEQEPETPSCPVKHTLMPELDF
1-acylglycerol-3-phosphate O-acyltransferase ABHD5/Perilipin-5, sequence (Q8WTS1 whole entry, the tested form may be a part): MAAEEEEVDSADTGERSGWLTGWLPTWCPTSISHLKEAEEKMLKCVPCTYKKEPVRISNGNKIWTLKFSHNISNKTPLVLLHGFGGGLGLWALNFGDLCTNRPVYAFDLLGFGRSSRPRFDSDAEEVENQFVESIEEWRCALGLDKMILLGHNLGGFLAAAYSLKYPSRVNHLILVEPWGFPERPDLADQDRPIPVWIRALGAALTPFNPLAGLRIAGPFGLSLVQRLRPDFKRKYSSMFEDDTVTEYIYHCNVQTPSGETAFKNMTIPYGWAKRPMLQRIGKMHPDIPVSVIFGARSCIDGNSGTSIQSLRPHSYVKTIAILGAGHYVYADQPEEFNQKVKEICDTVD

Perilipin-1/ABHD5 = Perilipin-1/ABHD5 (Homo sapiens, UniProt O60240+Q8WTS1); assay: Luminescence-based biochemical high throughput dose response assay for inhibitors of the interaction of the lipase co-activator protein, abhydrolase domain containing 5 (ABHD5) with perilipin-1 (PLIN1) (2K validation set). [Related pubchem assays (depositor defined):AID493027, AID493057]
Perilipin-1/ABHD5, sequence (Q8WTS1 whole entry, the tested form may be a part): as above
Perilipin-1/ABHD5, sequence (O60240 whole entry, the tested form may be a part): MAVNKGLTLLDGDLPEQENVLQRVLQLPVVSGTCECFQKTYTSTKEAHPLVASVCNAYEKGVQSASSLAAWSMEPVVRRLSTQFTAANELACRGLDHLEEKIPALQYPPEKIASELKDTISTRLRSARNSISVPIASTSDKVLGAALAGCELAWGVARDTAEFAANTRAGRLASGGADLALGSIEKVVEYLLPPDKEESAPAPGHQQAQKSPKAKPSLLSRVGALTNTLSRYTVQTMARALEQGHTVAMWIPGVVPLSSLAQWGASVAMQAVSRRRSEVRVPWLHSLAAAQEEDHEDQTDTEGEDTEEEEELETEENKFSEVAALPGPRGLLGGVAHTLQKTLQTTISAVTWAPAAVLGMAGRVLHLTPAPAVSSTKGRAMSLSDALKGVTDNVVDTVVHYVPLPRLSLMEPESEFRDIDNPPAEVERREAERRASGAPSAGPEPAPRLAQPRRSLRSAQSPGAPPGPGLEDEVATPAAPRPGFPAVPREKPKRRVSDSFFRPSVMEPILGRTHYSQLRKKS

[20] = biological target: Neurotensin receptor type 1 (Homo sapiens, UniProt P30989); assay type: functional;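 note: Image-based confirmatory dose-response assay measuring agonist activity at NTR1; NTR1-expressing U2OS osteosarcoma cells imaged for beta-arrestin GFP spot formation; agonist potency where compounds increase beta-arrestin recruitment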
X-box-binding protein 1 = X-box-binding protein 1 (Homo sapiens, UniProt P17861); assay type: functional, Cricetulus griseus;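 note: confirmatory dose-response counter-screen serving a CHOP assay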
X-box-binding protein 1, sequence (P17861 whole entry): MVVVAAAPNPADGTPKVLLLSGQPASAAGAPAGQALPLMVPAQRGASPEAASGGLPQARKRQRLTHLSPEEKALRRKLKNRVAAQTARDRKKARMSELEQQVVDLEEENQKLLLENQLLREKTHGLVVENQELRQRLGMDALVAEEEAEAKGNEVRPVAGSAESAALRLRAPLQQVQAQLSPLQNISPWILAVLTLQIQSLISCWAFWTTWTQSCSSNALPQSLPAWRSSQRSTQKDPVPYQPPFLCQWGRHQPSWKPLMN

[21] = biological target: Alkaline phosphatase, placental type (Homo sapiens, UniProt P05187); assay: PLAP enzyme inhibitors, confirmation, biochemical, luminescence (AID 1512); assay type: functional
Alkaline phosphatase, placental type, sequence (P05187 whole entry): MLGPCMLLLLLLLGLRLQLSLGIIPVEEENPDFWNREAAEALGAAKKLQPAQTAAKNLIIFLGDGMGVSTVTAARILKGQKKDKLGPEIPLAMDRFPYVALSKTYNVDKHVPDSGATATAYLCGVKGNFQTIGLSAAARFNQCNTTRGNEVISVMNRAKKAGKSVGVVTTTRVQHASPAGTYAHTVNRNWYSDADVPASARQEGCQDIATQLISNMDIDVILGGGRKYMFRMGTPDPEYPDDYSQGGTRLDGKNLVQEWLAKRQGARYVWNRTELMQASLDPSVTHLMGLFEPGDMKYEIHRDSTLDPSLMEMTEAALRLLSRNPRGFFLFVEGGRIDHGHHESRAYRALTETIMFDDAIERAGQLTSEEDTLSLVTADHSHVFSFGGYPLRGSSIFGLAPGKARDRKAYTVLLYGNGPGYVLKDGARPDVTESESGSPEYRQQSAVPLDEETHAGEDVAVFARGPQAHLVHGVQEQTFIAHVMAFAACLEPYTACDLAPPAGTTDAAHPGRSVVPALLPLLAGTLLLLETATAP

[22] = biological target: FAD-linked sulfhydryl oxidase ALR (Homo sapiens, UniProt P55789); assay: inhibitors of human ALR sulfhydryl oxidase, dose response, biochemical, H2O2 detection, luminescence, cherry-pick (AID 493248)
FAD-linked sulfhydryl oxidase ALR, sequence (P55789 whole entry): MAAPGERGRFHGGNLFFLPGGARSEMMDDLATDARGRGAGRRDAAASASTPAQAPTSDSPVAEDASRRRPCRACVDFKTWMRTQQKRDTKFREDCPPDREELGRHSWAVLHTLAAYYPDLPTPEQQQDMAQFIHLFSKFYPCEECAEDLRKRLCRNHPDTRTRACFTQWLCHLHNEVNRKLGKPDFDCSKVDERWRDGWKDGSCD

Mu-type opioid receptor = Mu-type opioid receptor (Homo sapiens, UniProt P35372); assay: SAR Analysis of Antagonists of the MOR Receptor using an Image-Based Assay - Set 3. [Related pubchem assays (depositor defined):AID1777, AID1785, AID1786, AID1966, AID2133, AID2136, AID2284, AID2285, AID2420]; assay type: functional
Mu-type opioid receptor, sequence (P35372 whole entry): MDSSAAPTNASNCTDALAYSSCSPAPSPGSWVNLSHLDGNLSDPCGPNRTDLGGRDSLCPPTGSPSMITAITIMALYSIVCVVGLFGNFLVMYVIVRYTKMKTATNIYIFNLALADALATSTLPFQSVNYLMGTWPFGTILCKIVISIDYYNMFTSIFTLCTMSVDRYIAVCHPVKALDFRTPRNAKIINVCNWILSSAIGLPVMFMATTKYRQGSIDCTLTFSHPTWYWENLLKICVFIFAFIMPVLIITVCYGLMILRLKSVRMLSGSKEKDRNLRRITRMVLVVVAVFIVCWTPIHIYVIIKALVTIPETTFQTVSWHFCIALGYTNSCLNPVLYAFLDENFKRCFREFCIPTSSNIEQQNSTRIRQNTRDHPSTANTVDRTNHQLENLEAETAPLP

[23] = biological target: Delta-type opioid receptor (Homo sapiens, UniProt P41143); assay: SAR Analysis of Antagonists of the DOR Receptor using an Image-Based Assay - Set 3. [Related pubchem assays (depositor defined):AID1777, AID1785]; assay type: functional;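 note: U2OS cells expressing DOR1 and beta-arrestin GFP stimulated with 100 nM SNC80; imaging of GFP-tagged beta-arrestin moving into spots after receptor activation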
Delta-type opioid receptor, sequence (P41143 whole entry): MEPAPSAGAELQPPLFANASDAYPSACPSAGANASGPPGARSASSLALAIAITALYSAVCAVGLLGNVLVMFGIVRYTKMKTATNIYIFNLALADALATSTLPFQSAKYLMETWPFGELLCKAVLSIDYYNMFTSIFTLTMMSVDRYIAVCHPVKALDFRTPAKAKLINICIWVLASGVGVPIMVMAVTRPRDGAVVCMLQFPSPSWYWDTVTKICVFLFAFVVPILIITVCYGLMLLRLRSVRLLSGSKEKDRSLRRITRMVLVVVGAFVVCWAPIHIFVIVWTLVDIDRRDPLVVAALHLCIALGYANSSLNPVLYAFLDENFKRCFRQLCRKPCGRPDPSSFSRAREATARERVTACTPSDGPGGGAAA

[24] = biological target: T5, Kappa-type opioid receptor (Homo sapiens, UniProt P41145); assay: SAR analysis of small molecule antagonists of the kappa opioid receptor via a luminescent beta-arrestin assay - Set 3. [Related pubchem assays (depositor defined):AID1777, AID1778, AID1785, AID1786, AID1966, AID2133, AID2136, AID2285, AID2495]; assay type: functional
T5 sequence (P41145 whole entry): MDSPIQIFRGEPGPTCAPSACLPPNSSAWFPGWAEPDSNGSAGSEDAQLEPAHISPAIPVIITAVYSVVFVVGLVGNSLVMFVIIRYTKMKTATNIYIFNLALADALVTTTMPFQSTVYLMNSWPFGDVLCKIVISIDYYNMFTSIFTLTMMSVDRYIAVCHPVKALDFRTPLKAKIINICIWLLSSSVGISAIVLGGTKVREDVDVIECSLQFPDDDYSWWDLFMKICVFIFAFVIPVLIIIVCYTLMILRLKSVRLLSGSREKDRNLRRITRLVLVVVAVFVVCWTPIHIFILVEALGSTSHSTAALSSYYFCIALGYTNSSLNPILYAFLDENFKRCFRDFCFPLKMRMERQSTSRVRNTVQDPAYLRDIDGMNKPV

[25] = biological target: T5, Kappa-type opioid receptor; assay: SAR analysis of Antagonists of the Kappa Opioid Receptor (KOR) using an Image-Based Assay - Set 4. [Related pubchem assays (depositor defined):AID1777, AID1785]; assay type: functional
[26] = biological target: G-protein coupled receptor 35 (Homo sapiens, UniProt Q9HC97); assay: SAR analysis of Antagonists of the GPR35 Receptor using an Image-Based Assay - Set 5. [Related pubchem assays (depositor defined):AID2058, AID2079]; assay type: functional
G-protein coupled receptor 35, sequence (Q9HC97 whole entry): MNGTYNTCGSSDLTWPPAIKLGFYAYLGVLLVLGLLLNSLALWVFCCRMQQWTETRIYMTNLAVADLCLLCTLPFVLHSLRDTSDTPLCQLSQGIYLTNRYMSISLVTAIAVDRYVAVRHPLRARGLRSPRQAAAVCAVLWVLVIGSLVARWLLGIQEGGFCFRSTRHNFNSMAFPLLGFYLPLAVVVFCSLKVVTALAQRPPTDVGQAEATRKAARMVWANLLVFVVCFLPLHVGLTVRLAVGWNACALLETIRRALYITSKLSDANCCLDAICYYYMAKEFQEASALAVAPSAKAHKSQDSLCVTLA

[27] = biological target: G-protein coupled receptor 55 (Homo sapiens, UniProt Q9Y2T6); assay: SAR Analysis of Selective Antagonists of GPR55 using an Image-Based Assay - Set 3. [Related pubchem assays (depositor defined):AID2058, AID2079]; assay type: functional
Hexokinase = Hexokinase (Trypanosoma brucei, UniProt Q38C41); assay: Confirmation assay for inhibitors of Trypanosoma brucei hexokinase 1-Analogue-first series. [Related pubchem assays (depositor defined):AID1430, AID1632, AID2516, AID2560, AID2579, AID2600, AID449725, AID492951]; assay type: functional
Hexokinase, sequence (Q38C41 whole entry): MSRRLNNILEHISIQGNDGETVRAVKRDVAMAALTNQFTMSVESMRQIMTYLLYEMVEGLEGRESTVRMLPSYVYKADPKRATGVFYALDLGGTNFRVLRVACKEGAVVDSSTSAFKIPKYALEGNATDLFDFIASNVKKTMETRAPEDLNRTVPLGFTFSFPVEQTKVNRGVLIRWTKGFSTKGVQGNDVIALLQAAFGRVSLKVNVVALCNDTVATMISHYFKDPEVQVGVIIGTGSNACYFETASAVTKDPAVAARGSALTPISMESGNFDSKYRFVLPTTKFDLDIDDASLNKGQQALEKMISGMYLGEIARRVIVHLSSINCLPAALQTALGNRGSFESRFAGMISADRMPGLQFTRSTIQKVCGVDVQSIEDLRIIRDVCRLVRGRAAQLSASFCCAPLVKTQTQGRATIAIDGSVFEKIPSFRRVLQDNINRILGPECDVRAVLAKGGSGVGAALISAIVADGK

Integrin alpha-4 = Integrin alpha-4 (Homo sapiens, UniProt P13612); assay: VLA-4 integrin allosteric ligands, SAR follow-up, cell-based, LIBS antibody binding, flow cytometry (AID 488791); assay type: functional

CCCCn1c(=O)c2ccccc2n2c(S)nnc12
IC50 (Large T antigen): 11.5 µM (active) | IC50 [1]: > 100 µM (inactive) | IC50 [2]: 1.7 µM (active) | IC50 [3]: > 99 µM (inactive) | IC50 [4]: 0.345 µM (active) | IC50 [5]: 2.72 µM (active) | IC50 [6]: > 99 µM (inactive)

Cn1nc([N+](=O)[O-])nc1Sc1nnc(-c2ccccc2)o1
EC50 [7]: > 120 µM (not active) | EC50 (BJ [8]): 3.15 µM (active) | EC50 [9]: > 120 µM (not active) | EC50 [10]: 10.2 µM (active) | EC50 (BJ [11]): 2.52 µM (active) | IC50 (J774.A1): 0.438 µM (active) | EC50 (BJ [12]): 43.9 µM (inconclusive) | EC50 [13]: 11.1 µM (active) | IC50 [14]: 6.19 µM (active) | IC50 [15]: > 80 µM (inactive) | AC50 [16]: 40.3 µM (active) | EC50 (BJ [17]): 0.556 µM (active) | EC50 (Protein RecA): 10.9 µM (active)

O=C(Nc1ccc(Oc2c(F)c(F)c(F)c(F)c2F)cc1)OC1CCN2Cc3ccccc3N=C12 (configuration not stated)
EC50 [9]: 12 µM (active) | EC50 [10]: 8.72 µM (active) | AC50 [18]: 0.888 µM (active) | IC50 [19]: 9.84 µM (active) | IC50 (Perilipin-1/ABHD5): 8.78 µM (active) | EC50 [20]: 19 µM (active) | Absolute IC50 (XBP1) (X-box-binding protein 1): 10 µM

O=C(NNc1ccccn1)C(=O)NNS(=O)(=O)c1ccc(Cl)cc1
IC50 [21]: > 100 µM (inactive) | AC50 [22]: 0.786 µM (active)

COc1ccc(N2CCN(CCCNC(=O)Cn3c(=O)c4cccn4c4cc(Br)cnc43)CC2)c(OC)c1
IC50 (Mu-type opioid receptor): 10.2 µM (inactive) | IC50 [23]: > 32 µM (inactive) | IC50 [24]: 2.82 µM (active) | IC50 [25]: 3.02 µM (active)

COC(=O)c1cnn(-c2ccccc2)c1/C=N/NC(=S)Nc1ccccc1
IC50 [26]: 1.01 µM (active) | IC50 [27]: 15.1 µM (inactive)

O=C(O)c1ccc(Cl)cc1NC(=O)N1CCOCC1
IC50 (Hexokinase): > 25 µM (inactive)

Cc1ccc(NC(=O)c2cc(N3C(=O)CCC3=O)ccc2N2CCOCC2)cc1Cl
EC50 (Integrin alpha-4): 23.3 µM (active)
